For 1 molecule, IC50 results are on record in ChEMBL document CHEMBL5728698, “Pyrrolo[1,2-b]pyridazine derivatives” (2021).

Each structure is given as a SMILES string.

This test deals with T1, Interleukin-1 receptor-associated kinase 4 (Homo sapiens, UniProt Q9NWZ3).
T1 sequence (Q9NWZ3 whole entry): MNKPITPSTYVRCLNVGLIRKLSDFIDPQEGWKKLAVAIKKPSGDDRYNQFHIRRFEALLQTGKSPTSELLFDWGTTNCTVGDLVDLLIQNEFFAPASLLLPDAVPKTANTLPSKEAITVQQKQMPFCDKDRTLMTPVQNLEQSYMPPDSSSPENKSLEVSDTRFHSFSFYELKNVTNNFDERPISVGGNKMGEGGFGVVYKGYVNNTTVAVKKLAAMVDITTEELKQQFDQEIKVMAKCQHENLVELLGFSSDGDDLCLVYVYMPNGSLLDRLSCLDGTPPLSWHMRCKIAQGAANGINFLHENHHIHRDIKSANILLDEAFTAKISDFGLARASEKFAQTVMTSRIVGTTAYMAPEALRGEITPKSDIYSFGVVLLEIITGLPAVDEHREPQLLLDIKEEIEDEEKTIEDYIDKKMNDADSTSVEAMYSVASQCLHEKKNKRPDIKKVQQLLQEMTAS
The test is described as follows: IRAK4 Biochemical Assay: IRAK4 enzyme (Carna Biosciences, Chuo-ku, Kobe, Japan) activity was measured by detecting phosphorylated peptide substrate formation using an antibody against the phosphorylated peptide substrate. This is a time-resolved fluorescence resonance energy transfer (TR-FRET) immunoassay, based on the STK1 KinEASE Assay (Cisbio, Bedford, Mass.). The assay was designed as a simple two-step, endpoint assay (a 5 μl enzyme reaction followed by 5 μl stop and detect Solution) performed in ProxiPlate-384 Plus plates (Perkin Elmer, Waltham, Mass.). Staurosporine, a non-selective kinase inhibitor was used as a positive control. Compounds diluted in DMSO were spotted into 384 well plates using a Labcyte® Echo 550 Liquid Handling System prior to addition of IRAK4 enzyme and peptide substrate. Reaction solutions were delivered using a Multi-Flo (Bio-Tek Instruments). The enzyme and peptide solution was incubated with compound for 15 minutes at room temp before the reaction was initiated by the addition of ATP. The standard 5 μl reaction mixture contained 500 μM ATP, 2 μM peptide (STK1 Peptide), 0.75 nM of IRAK4 in reaction buffer (50 mM HEPES, pH 7.0, 0.02% NaN3, 0.01% BSA, 0.1 mM Orthovanadate, 5 mM MgCl2, 0.025% NP-40, 1 mM DTT). […].

For the molecule `COC(=O)NC[C@H]1C[C@H](Nc2cc(-c3ccc4cc(C#N)cnn34)ncc2-c2cn([C@H]3CC[C@H](NC(=O)N4CCOCC4)CC3)nn2)C1`, the IC50 is below 1 nM.
